Five substances from article PMC6466588, “Characterization and Antimicrobial Activity of Amphiphilic Peptide AP3 and Derivative Sequences” (Antibiotics, 2019) can be followed below.

No end group written: not given here.

For data set [1], the system named is K. pneumoniae 700603. It is filed as cell-based. The following applies: 700603, 18 h. The procedure:
(§1) The antibacterial activities of each peptide were determined against various Gram-negative and Gram-positive bacteria using minimum inhibitory concentration (MIC) assays. The MIC is defined as the lowest concentration of peptide that prevents growth of bacteria using the optical density at 600 nm under standard growth conditions.
(§2) Bacteria were streaked from frozen stocks onto Difco LB-miller agar (BD, Franklin Lakes, NJ, USA) plates (E. coli MG1655 ATCC 47076, E. coli D31 [34], S. aureus ATCC25923, P. aeruginosa ATCC10145, K. pneumoniae 700603). Streaked plates were grown overnight at 37 °C and subsequently stored at 4 °C.
(§3) To prepare overnight cultures, a single colony of each bacterial strain was added to LB broth (Difco) in sterile culture tubes. Tubes were placed in the shaking incubator at 37 °C overnight to allow for sufficient bacterial growth. After incubation, dilutions of the overnight culture were made in LB (1:100) or Muller-Hinton broth (Criterion) (1:250) for MIC assay protocols (Hardy Diagnostics, Santa Maria, CA, USA).
(§4) Minimal inhibitory concentrations (MIC) were determined for each peptide The MIC assay was set up by adding 10 µL of the peptide stock solutions to wells of a sterile 96-well plate to which […] of diluted bacterial culture was added. The final bacterial load was ~5.0 × 10^5 cfu/mL as calculated from the Optical Density^@ 600 nm (OD600) measurements of a log-phase culture. The assay plate was incubated at 37 °C for 18 h. Bacterial growth was assayed by absorbance at OD600 using Multiskan microplate reader (Thermo Fisher, Waltham, MA, USA). […] All MIC values are averages of at least triplicate samples.

Data set [2] deals with P. aeruginosa ATCC10145. It is filed as cell-based. The following applies: ATCC10145, 18 h. As to the method:
as §1, §2, §3, §4

Data set [3] concerns E. coli. Format: cell-based. To be noted: 18 h. The procedure:
as §1, §2, §3, §4

The test system of data set [4] is S. aureus ATCC25923. Format: cell-based. The following applies: ATCC25923, 18 h. As to the method: as §1, §2, §3, §4
Data set [5] has as its system HEK-293 cells. In words: Mammalian cell viability, MTT assay. To be noted: HEK-293, MTT, 24 h, 37 °C, triplicate. It is filed as cell-based, Human. The procedure: The cells were treated with five different concentrations of each peptide ranging from 0.0015 µM to 15 µM for a total of 24 h before viability measurements were performed.
Figure 6 Mammalian cell viability assay—Effects of AP3 peptides on HEK-293 cell viability assayed by MTT metabolic breakdown. A standard density of HEK-293 cells was incubated with serially diluted peptides for 24 h at 37 °C before the assay was performed. Percent viability was normalized to MTT breakdown observed in untreated controls. Color coding of the graph is AP3 (red), AP3K (blue), APX (purple), APX-17 (black), and APX-12 (green). All data represent the average of at least three replicates and error bars represent the standard deviation.
Cellular toxicity of specific peptides was determined by MTT ((3-(4,5-Dimethylthiazol-2-yl)-2,5-Diphenyltetrazolium Bromide)) assay. Human embryonic kidney (HEK) 293 cells with a lenti-CRE luciferase reporter gene were seeded in 96-well plates at a density of 1.5 × 10^4 cells per well and incubated with 5% CO2 at 37 °C for 24 h. Then, cells were treated with appropriate concentrations of peptides (0.0015–15 µM) and control for 24 h. After treatment for 24 h, 10 µL of MTT solution (5 mg MTT/mL PBS) was added to all wells and incubated for 4 h. Then, DMSO was added as a solubilizing agent and the absorbance was recorded at 540 nm. Each peptide concentration was performed in triplicate.
Background: Tetrazolium dyes change colour on reduction, which living cells bring about.

By MIC is commonly meant the smallest concentration in the dilution series that meets the test's criterion for growth inhibition. Read a high MIC as weaker potency. In the case of GWKTLLKKAEVKTVGKLALKHYL-NH2 [AP3K], the minimum inhibitory concentration (MIC) was greater than 9.30 µM in data set [1], 0.29 µM in data set [2], 9.3 µM in data set [3] and 2.32 µM in data set [4]. In addition, the “cytotoxicity, dead cells” value in data set [5] (1.5 µM peptide) is ~ 18%; in data set [5] (15 µM peptide), ~ 40%.
For GWRTLLKKAEVKTVGKLALKHYL-NH2 [AP3], the MIC in data set [1] was 4.15 µM; in data set [3] it was 8.3 µM; in data set [4], 4.15 µM. Moreover, the “cytotoxicity, dead cells” value in data set [5] (1.5 µM peptide) was ~ 18%.
As to GYRTLLKKAEVKTVGKLALKHWL-NH2 [APX], the MIC in data set [1] is greater than 15.0 µM; in data set [2], 15 µM; in data set [3], greater than 15.0 µM; in data set [4] it was 15 µM.
Take KKAEVKTVGKLALKHWL-NH2 [APX-17]: the MIC in data set [1], in data set [2], in data set [3] and in data set [4] was greater than 8.00 µM each time.
In the case of KTVGKLALKHWL-NH2 [APX-12], the MIC in data set [1], in data set [2], in data set [3] and in data set [4] was greater than 15.0 µM throughout.
